Where “and” joins values, the source holds several entries; their conditions need not be identical. Equal entries are not always repeated.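 Growth conditions: 96-well plates. Treatment: test compound, 48 hours, 5 concentrations. Analysis: linear interpolation between bracketing concentrations; unreached endpoints set to highest concentration. The concentration for 50% growth inhibition is given as GI50. TGI: total growth inhibition.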 Where a SMILES comes first, the peptide text is derived from it. The star is where a group is joined. Cbz = O=C(OCc1ccccc1)*
Key:
Experiment in all cases: NCI anticancer screen, dose series, 48 h
EKVX NSCLC = test system: EKVX NSCLC
NCI-H522 lung = test system: NCI-H522 lung
K-562 leukemia = test system: K-562 leukemia
SF-295 CNS = test system: SF-295 CNS
UACC-257 melanoma = test system: UACC-257 melanoma
HOP-62 NSCLC = test system: HOP-62 NSCLC
MOLT-4 leukemia = test system: MOLT-4 leukemia
NCI-H460 lung = test system: NCI-H460 lung
U251 CNS = test system: U251 CNS
HOP-92 NSCLC = test system: HOP-92 NSCLC
A549 NSCLC = test system: A549 NSCLC
SF-268 CNS = test system: SF-268 CNS

| SMILES | TGI (EKVX NSCLC) [µM] | TGI (NCI-H522 lung) | TGI (K-562 leukemia) [µM] | TGI (SF-295 CNS) [µM] | TGI (UACC-257 melanoma) [µM] | TGI (HOP-62 NSCLC) [µM] | TGI (MOLT-4 leukemia) [µM] | TGI (NCI-H460 lung) [µM] | TGI (U251 CNS) [µM] | TGI (HOP-92 NSCLC) [µM] | TGI (A549 NSCLC) [µM] | TGI (SF-268 CNS) [µM] | GI50 (EKVX NSCLC) [µM] | GI50 (NCI-H522 lung) [µM] | GI50 (MOLT-4 leukemia) [µM] | GI50 (NCI-H460 lung) [µM] | GI50 (U251 CNS) [µM] | GI50 (HOP-92 NSCLC) [µM] | GI50 (A549 NSCLC) [µM] | GI50 (SF-268 CNS) [µM] |
| --- | --- | --- | --- | --- | --- | --- | --- | --- | --- | --- | --- | --- | --- | --- | --- | --- | --- | --- | --- | --- |
| C/C=C(/C)C(=O)O[C@@H]1CCN2CC[C@H](COC(=O)/C(=C/C)CO)C12 (some centres not stated) | > 100 | > 100 µM | 18.3 | > 100 | 99.7 | > 100 | > 100 | > 100 | > 100 | > 100 | > 100 | > 100 |  |  |  |  |  |  |  |  |
| O=C(O)CCC(NC(=O)OCc1ccccc1)C(=O)NC(Cc1cnc[nH]1)C(=O)O (stereo not drawn) (Cbz-Glu-His-OH; configuration not given here) | > 100 | > 100 µM | > 100 | > 100 | > 100 | > 100 | > 100 | > 100 | > 100 | > 100 | > 100 | > 100 |  |  |  |  |  |  |  |  |
| CCOC1OC(=O)c2cc3ccc4c(c3c(-c3ccc5c(c3)OCO5)c21)OCO4 (configuration not stated) | > 100 | 6.9 µM | > 100 | 8.14 | > 84.5 | > 100 | > 100 | 28.1 | > 100 | > 100 | > 100 | > 100 |  |  |  |  |  |  |  |  |
| CCOC(=O)CC[C@H](NC(=O)[C@H](N)Cc1ccc(N(CCCl)CCCl)cc1)C(=O)OCC | > 67.9 | 18.3 µM | > 100 | > 77.8 | 37.9 | > 59.6 | 6.85 | 17.3 | > 59.2 | 18.3 | > 100 | 19.7 |  |  |  |  |  |  |  |  |
| COC(=O)c1ccccc1/C=C1\Cc2ccc(C)c(C)c2C1=O | > 100 | > 100 µM | > 100 | > 100 | > 100 | > 100 | > 100 | > 100 | > 100 | 92.5 | > 100 | > 100 |  |  |  |  |  |  |  |  |
| Cc1nc2c(nc1C)-c1[nH]c3c(c1C(=O)C2=O)CCCC3=O | 3.71 | 4.42 µM | 5.59 | 3.31 | 4.83 | 6.76 | 5.67 | 16.2 | 2.92 | 3.66 | 16.3 | 2.9 |  |  |  |  |  |  |  |  |
| N#Cc1c(N)nc2n[nH]c(N)c2c1-c1ccc(Cl)cc1 | 44 | 9.11 µM | > 100 | 42.7 | > 100 | 71.5 | > 100 | > 96.7 | > 55 | 6.14 | > 72.9 | > 100 |  |  |  |  |  |  |  |  |
| O=C(O)C(NCc1ccccc1)C(NCc1ccccc1)C(=O)O (configuration not stated) | > 100 | > 100 µM | > 100 | > 100 | > 100 | > 100 | > 100 | > 100 | > 100 | > 100 | > 100 | > 100 |  |  |  |  |  |  |  |  |
| O=C(Nc1nc(C23CC4CC(CC(C4)C2)C3)cs1)c1cc2ccc(O)cc2oc1=O | 43.3 | 45.6 µM | 68.2 | 48.4 | 44.1 | 36.8 | 38.1 | 52.7 | 28.7 | 15.3 | 38.3 | 39.9 |  |  |  |  |  |  |  |  |
| CN(C)CCCN1CCC2(CCC(C(C)(C)C)CC2)CC1 | 19.4 | 6.07 µM | 0.962 | 3.96 | 2.76 | 4.91 | 5.74 | 2.36 | 3.64 | 10.1 | 12.1 | 7.29 |  |  |  |  |  |  |  |  |
| COc1cc2c(C)cc(O)cc2c2cc(O)c(C)cc12 | 22.6 | 27.3 µM | 9.94 | 23.8 | 22.8 | 15.5 | 25.1 | 9.73 | 21.3 | 22.3 | 23.8 | 29.6 |  |  |  |  |  |  |  |  |
| CC(CO)(CO)N1C(=O)C2C3C=CC(C3)C2C1=O (configuration not stated) | > 100 | > 100 µM | > 100 | > 100 | > 100 | > 100 | > 100 | > 100 | > 100 | > 100 | > 100 | > 100 |  |  |  |  |  |  |  |  |
| COc1cc(NS(C)(=O)=O)ccc1Nc1c2ccccc2nc2c1[nH]c1ccc(NC3OC(CO)C(O)C(O)C3O)cc12 (configuration not stated) | 4.98 | 0.387 µM | 20.3 | 0.13 | 11 | 0.208 | 3.65 | 0.196 | 0.332 | 1.04 | 0.235 | 1.51 |  |  |  |  |  |  |  |  |
| O=c1cc(-c2cccc3ccccc23)[nH]c2ncccc12 | > 100 | 0.0698 µM and 0.0767 µM | > 100 | > 100 |  | > 100 | > 100 | > 100 | > 100 | 70.1 | > 100 | > 100 | 0.0239 | 0.0158 | 0.0449 | 0.0392 | 0.0103 | 0.773 | 0.0216 | 10.1 |
| Cn1c(=O)n(C2(C)C[Se]C2)c2ccccc21 | > 100 | > 100 µM | > 100 | > 100 | > 100 | > 100 | > 100 | > 100 | > 100 | > 100 | > 100 | > 100 |  |  |  |  |  |  |  |  |
| CC#CCOC(=O)c1ccccc1OC(C)=O | > 100 | > 100 µM | > 100 | > 100 | > 100 | > 100 | > 100 | > 100 | > 100 | > 100 |  | > 100 |  |  |  |  |  |  |  |  |
| O=C(Oc1ccccn1)c1cc2cc(CCl)ccc2oc1=O | > 100 | 30.3 µM | > 100 | > 100 | > 100 | 52.9 | > 100 | > 100 | 34.7 | 39.3 | > 100 | 39.2 |  |  |  |  |  |  |  |  |
| CC(C)=CC[C@]12CCN[C@H]1N(S(=O)(=O)c1ccccc1)c1ccccc12 | 21.3 | 30.1 µM | 56.9 | 34.5 | 34.8 | 29.1 | 75.8 | 29 | 30.7 | 28.3 | 59.1 | 33.3 |  |  |  |  |  |  |  |  |
